Data taken from ChEMBL document CHEMBL1697731, “Cheminformatics analysis of assertions mined from literature that describe drug-induced liver injury in different species” (Chem Res Toxicol, 2010).

Key:
[1] = test system: Hepatotoxicity; test: Literature-mined compound from Fourches et al multi-species drug-induced liver injury (DILI) dataset, effect in rodents; settings: rodentia
[2] = test system: Hepatotoxicity; test: Literature-mined compound from Fourches et al multi-species drug-induced liver injury (DILI) dataset, effect in non-rodents
[3] = test system: Hepatotoxicity; test: Literature-mined compound from Fourches et al multi-species drug-induced liver injury (DILI) dataset, effect in humans; settings: human

For `CNC1=Nc2ccc(Cl)cc2C(c2ccccc2)=[N+]([O-])C1` [CHLORDIAZEPOXIDE], the Hepatotoxicity [1] was “drug-induced liver injury reported”, the Hepatotoxicity [2] was “no drug-induced liver injury reported” and the Hepatotoxicity [3] was “no drug-induced liver injury reported”.

With `CC(=O)O[C@]1(C(C)=O)CC[C@H]2[C@@H]3C=C(Cl)C4=CC(=O)CC[C@]4(C)[C@H]3CC[C@@]21C` [CHLORMADINONE ACETATE] the Hepatotoxicity [1] was “drug-induced liver injury reported”, the Hepatotoxicity [2] was “drug-induced liver injury reported” and the Hepatotoxicity [3] was “drug-induced liver injury reported”.

For `CN1C(=O)CCS(=O)(=O)C1c1ccc(Cl)cc1` (stereo unspecified) [CHLORMEZANONE], the Hepatotoxicity [1] was “no drug-induced liver injury reported”, the Hepatotoxicity [2] was “no drug-induced liver injury reported” and the Hepatotoxicity [3] was “drug-induced liver injury reported”.

With `Clc1ccc(C(c2ccc(Cl)cc2)C(Cl)(Cl)Cl)cc1` [CHLOROPHENOTHANE] the Hepatotoxicity [1] was “drug-induced liver injury reported”, the Hepatotoxicity [2] was “no drug-induced liver injury reported” and the Hepatotoxicity [3] was “no drug-induced liver injury reported”.

`CCN(CC)CCCC(C)Nc1ccnc2cc(Cl)ccc12` (stereo unspecified) [CHLOROQUINE] was tested, and the Hepatotoxicity [1] was “drug-induced liver injury reported”, the Hepatotoxicity [2] was “drug-induced liver injury reported” and the Hepatotoxicity [3] was “drug-induced liver injury reported”.

`Cc1cc(O)cc(C)c1Cl` [CHLOROXYLENOL] was tested, and the Hepatotoxicity [1] was “drug-induced liver injury reported”, the Hepatotoxicity [2] was “no drug-induced liver injury reported” and the Hepatotoxicity [3] was “no drug-induced liver injury reported”.

With `CN(C)CCC(c1ccc(Cl)cc1)c1ccccn1` (stereo unspecified) [CHLORPHENIRAMINE] the Hepatotoxicity [1] was “no drug-induced liver injury reported”, the Hepatotoxicity [2] was “no drug-induced liver injury reported” and the Hepatotoxicity [3] was “drug-induced liver injury reported”.

In the case of `CN(C)CCCN1c2ccccc2Sc2ccc(Cl)cc21` [CHLORPROMAZINE], the Hepatotoxicity [1] is reported as “drug-induced liver injury reported”, the Hepatotoxicity [2] is reported as “drug-induced liver injury reported” and the Hepatotoxicity [3] is reported as “drug-induced liver injury reported”.

In the case of `CCCNC(=O)NS(=O)(=O)c1ccc(Cl)cc1` [CHLORPROPAMIDE], the Hepatotoxicity [1] is reported as “drug-induced liver injury reported”, the Hepatotoxicity [2] is reported as “no drug-induced liver injury reported” and the Hepatotoxicity [3] is reported as “drug-induced liver injury reported”.

In the case of `CN(C)[C@@H]1C(O)=C(C(N)=O)C(=O)[C@@]2(O)C(O)=C3C(=O)c4c(O)ccc(Cl)c4[C@@](C)(O)[C@H]3C[C@@H]12` [CHLORTETRACYCLINE], the Hepatotoxicity [1] is reported as “drug-induced liver injury reported”, the Hepatotoxicity [2] is reported as “drug-induced liver injury reported” and the Hepatotoxicity [3] is reported as “no drug-induced liver injury reported”.

For `C=C1CC[C@H](O)C/C1=C/C=C1\CCC[C@]2(C)[C@@H]([C@H](C)CCCC(C)C)CC[C@@H]12` [CHOLECALCIFEROL], the Hepatotoxicity [1] was “drug-induced liver injury reported”, the Hepatotoxicity [2] was “no drug-induced liver injury reported” and the Hepatotoxicity [3] was “no drug-induced liver injury reported”.

`Nc1ccn(C[C@@H](CO)OCP(=O)(O)O)c(=O)n1.O.O` [CIDOFOVIR] was tested, and the Hepatotoxicity [1] was “no drug-induced liver injury reported”, the Hepatotoxicity [2] was “no drug-induced liver injury reported” and the Hepatotoxicity [3] was “drug-induced liver injury reported”.

In the case of `CN/C(=N/CCSCc1nc[nH]c1C)NC#N` [CIMETIDINE], the Hepatotoxicity ([1]; Liver) is reported as “drug-induced liver injury reported”, the Hepatotoxicity ([2]; Liver) is reported as “drug-induced liver injury reported” and the Hepatotoxicity ([3]; Liver) is reported as “drug-induced liver injury reported”.

In the case of `O=C(O)c1cc(-c2ccccc2)nc2ccccc12` [CINCHOPHEN], the Hepatotoxicity [1] is reported as “no drug-induced liver injury reported”, the Hepatotoxicity [2] is reported as “drug-induced liver injury reported” and the Hepatotoxicity [3] is reported as “drug-induced liver injury reported”.

With `CCn1nc(C(=O)O)c(=O)c2cc3c(cc21)OCO3` [CINOXACIN] the Hepatotoxicity [1] was “no drug-induced liver injury reported”, the Hepatotoxicity [2] was “no drug-induced liver injury reported” and the Hepatotoxicity [3] was “drug-induced liver injury reported”.

For `CC(C)(Oc1ccc(C2CC2(Cl)Cl)cc1)C(=O)O` (stereo unspecified) [CIPROFIBRATE], the Hepatotoxicity [1] was “drug-induced liver injury reported”, the Hepatotoxicity [2] was “drug-induced liver injury reported” and the Hepatotoxicity [3] was “drug-induced liver injury reported”.

With `O=C(O)c1cn(C2CC2)c2cc(N3CCNCC3)c(F)cc2c1=O` [CIPROFLOXACIN] the Hepatotoxicity ([1]; Liver) was “drug-induced liver injury reported”, the Hepatotoxicity ([2]; Liver) was “no drug-induced liver injury reported” and the Hepatotoxicity ([3]; Liver) was “drug-induced liver injury reported”.

For `COc1cc(N)c(Cl)cc1C(=O)NC1CCN(CCCOc2ccc(F)cc2)CC1OC` (stereo unspecified) [CISAPRIDE], the Hepatotoxicity [1] was “no drug-induced liver injury reported”, the Hepatotoxicity [2] was “no drug-induced liver injury reported” and the Hepatotoxicity [3] was “drug-induced liver injury reported”.

For `CN(C)CCCC1(c2ccc(F)cc2)OCc2cc(C#N)ccc21` (stereo unspecified) [CITALOPRAM], the Hepatotoxicity [1] was “drug-induced liver injury reported”, the Hepatotoxicity [2] was “no drug-induced liver injury reported” and the Hepatotoxicity [3] was “no drug-induced liver injury reported”.

`O=C(O)CC(O)(CC(=O)O)C(=O)O` [CITRIC ACID] was tested, and the Hepatotoxicity [1] was “drug-induced liver injury reported”, the Hepatotoxicity [2] was “no drug-induced liver injury reported” and the Hepatotoxicity [3] was “no drug-induced liver injury reported”.

In the case of `Nc1nc(Cl)nc2c1ncn2[C@H]1C[C@H](O)[C@@H](CO)O1` [CLADRIBINE], the Hepatotoxicity [1] is reported as “no drug-induced liver injury reported”, the Hepatotoxicity [2] is reported as “no drug-induced liver injury reported” and the Hepatotoxicity [3] is reported as “drug-induced liver injury reported”.

`CC[C@H]1OC(=O)[C@H](C)[C@@H](O[C@H]2C[C@@](C)(OC)[C@@H](O)[C@H](C)O2)[C@H](C)[C@@H](O[C@@H]2O[C@H](C)C[C@H](N(C)C)[C@H]2O)[C@](C)(OC)C[C@@H](C)C(=O)[C@H](C)[C@@H](O)[C@]1(C)O` [CLARITHROMYCIN] was tested, and the Hepatotoxicity [1] was “drug-induced liver injury reported”, the Hepatotoxicity [2] was “no drug-induced liver injury reported” and the Hepatotoxicity [3] was “drug-induced liver injury reported”.

With `O=C(O)[C@H]1/C(=C/CO)O[C@@H]2CC(=O)N21` [CLAVULANIC ACID] the Hepatotoxicity [1] was “no drug-induced liver injury reported”, the Hepatotoxicity [2] was “no drug-induced liver injury reported” and the Hepatotoxicity [3] was “drug-induced liver injury reported”.

For `CCC[C@@H]1C[C@@H](C(=O)N[C@@H]([C@H]2O[C@H](SC)[C@H](O)[C@@H](O)[C@H]2O)[C@H](C)Cl)N(C)C1` [CLINDAMYCIN], the Hepatotoxicity [1] was “no drug-induced liver injury reported”, the Hepatotoxicity [2] was “no drug-induced liver injury reported” and the Hepatotoxicity [3] was “drug-induced liver injury reported”.

For `Oc1c(I)cc(Cl)c2cccnc12` [CLIOQUINOL], the Hepatotoxicity [1] was “drug-induced liver injury reported”, the Hepatotoxicity [2] was “no drug-induced liver injury reported” and the Hepatotoxicity [3] was “no drug-induced liver injury reported”.

In the case of `CN1C(=O)CC(=O)N(c2ccccc2)c2cc(Cl)ccc21` [CLOBAZAM], the Hepatotoxicity [1] is reported as “no drug-induced liver injury reported”, the Hepatotoxicity [2] is reported as “no drug-induced liver injury reported” and the Hepatotoxicity [3] is reported as “drug-induced liver injury reported”.

`O=P(O)(O)C(Cl)(Cl)P(=O)(O)O` [CLODRONIC ACID] was tested, and the Hepatotoxicity [1] was “drug-induced liver injury reported”, the Hepatotoxicity [2] was “no drug-induced liver injury reported” and the Hepatotoxicity [3] was “no drug-induced liver injury reported”.
